The values below come from patent US20110060053A1, “Crystalline Modifications of 6-Dimethylaminomethyl-1-(3-methoxyphenyl)-cyclohexane-1,3-diol” (Gruenenthal GmbH, priority 2002, published 2011).

This series in a line: thermodynamic stability of the crystalline modifications. Format: physicochemical. The note with it: in particular in the temperature range of −20° C. to 120° C.

Regarding `COc1cccc([C@@]2(O)C[C@H](O)CC[C@@H]2CN(C)C)c1` (racemic) [Crystalline modification A, (1RS,3RS,6RS)-6-dimethylaminomethyl-1-(3-methoxyphenyl)-cyclohexan-1,3-diol], the thermodynamic stability result is “most thermodynamically stable form”.
